Laboratory results reported in paper PMC5562523 (Cell chemical biology, 2017).

How the values were obtained:
CDC1551 (ΔphoPR) = format: cell-based; conditions: acidic pH
CDC1551 katG::Tn mutant = format: cell-based, Mycobacterium tuberculosis; conditions: pH 5.7

COc1ccc(NC(=O)c2nc(S(C)(=O)=O)ncc2Cl)cc1Cl [AC2P36, 5-chloro-N-(3-chloro-4-methoxyphenyl)-2-methylsulfonylpyrimidine-4-carboxamide]
sensitivity of ΔphoPR mutant vs WT to AC2P36 (CDC1551 (ΔphoPR)): no differences were observed between WT or ΔphoPR sensitivity to AC2P36 | sensitivity of WT, katG::Tn mutant and complemented strain to AC2P36 (CDC1551 katG::Tn mutant): No difference was observed between the three strains
